According to patent US20230092679A1, “MCL-1 INHIBITOR ANTIBODY-DRUG CONJUGATES AND METHODS OF USE” (NOVARTIS AG, priority 2019, published 2023):

Experiments:
aml193 = experiment: In vitro ADC activity, AML cell lines, CellTiter-Glo (Example 20); assay type: cell-based; conditions: aml193, 5 days
hel = experiment: as above; assay type: cell-based; conditions: 5 days
m07e = experiment: as above; assay type: cell-based; conditions: 5 days
mv411 = experiment: as above; assay type: cell-based; conditions: mv411, 5 days
monomac1 = experiment: as above; assay type: cell-based; conditions: monomac1, 5 days
21435hx = experiment: as above; assay type: cell-based; conditions: 5 days
AMO1-CD33 clone D2 = experiment: CellTiter-Glo proliferation assay (Example 6); assay type: cell-based, human; conditions: CD33 Mcl-1 ADCs and payload P1, 5 days
Method: (§1) Mcl-1 ADCs were tested on nine endogenous cancer cell lines and one isogenic cell line engineered to overexpress a target of interest. Six targets were assessed: HER2, BCMA, CD38, CD48, CD79b, and CD33.
(§2) Cell lines • HER2: HCC1954 (ATCC No. CRL-2338 cultured in RPMI-1640+10% FBS) and HCC2218 (ATCC No. CRL-2343 cultured in RPMI-1640+10% FBS). • BCMA: NCI-H929 (ATCC No. CRL-9068 cultured in RPMI-1640+10% FBS+0.05 mM 2-mercaptoethanol). • CD38: A4-Fuk (JCRB No. JCRB0097 cultured in RPMI-1640+10% FBS) and KMS-21 BM (JCRB No. JCRB1185 cultured in RPMI-1640+10% FBS). • CD48: NCI-H929 (ATCC No. CRL-9068 cultured in RPMI-1640+10% FBS+0.05 mM 2-mercaptoethanol), OPM-2 (DSMZ No. ACC-50 cultured in RPMI-1640+10% FBS) and AMO1 (DSMZ No. ACC-538 cultured in RPMI-1640+20% FBS). • CD79b: RS4;11 (ATCC No. CRL-1873 cultured in RPMI-1640+10% FBS). • CD33: MOLM-13 (DSMZ No. ACC-554 cultured in RPMI-1640+10% FBS) and an isogenic cell line, AMO1-CD33 clone D2. AMO1 cell line was transfected to generate a stable AMO1 cell line expressing the exogenous protein of interest, CD33, AMO1-CD33 clone D2 (cultured in RPMI-1640+20% FBS).
(§3) The ability of Mcl-1 ADCs to inhibit cell proliferation and survival was assessed using a Promega CellTiter-Glo® proliferation assay. Cell lines were cultured in media optimal for their growth at 5% CO2, 37° C. in a tissue culture incubator. Prior to seeding for the proliferation assay, the cells were split at least 2 days before the assay to ensure optimal growth density. On the day of seeding, adherent cells were lifted off tissue culture flasks using 0.25% trypsin. Cell viability and cell density were determined using a cell counter (Vi-Cell XR Cell Viability Analyzer, Beckman Coulter). […] Cells were seeded at a density of 1,000 cells per well in 45 μl of standard growth media. Plates were incubated at 5% CO2, 37° C. overnight in a tissue culture incubator. The next day, free Mcl-1 payload (P1), targeting Mcl-1 ADCs, and non-targeting isotype ADCs were prepared at 10× in standard growth media. The prepared drug treatments were then added to the cells resulting in final concentrations of 0.0005-500 nM and a final volume of 50 μl per well. Each drug concentration was tested in quadruplets. Plates were incubated at 5% CO2, 37° C. for 5 days in a tissue culture incubator, after which cell viability was assessed through the addition of 25 μl of CellTiter Glo® (Promega, Cat. No. G7573), a reagent which lyses cells and measures total adenosine triphosphate (ATP) content. Plates were incubated at room temperature for 10 minutes to stabilize luminescent signals prior to reading using a luminescence reader (EnVision Multilabel Plate Reader, PerkinElmer). […]

AMO1 = experiment: CellTiter-Glo proliferation assay (Example 6); assay type: cell-based, human; conditions: CD48 Mcl-1 ADCs and payload P1, 5 days
Method: as §1, §2, §3

molm13 = experiment: In vitro ADC activity, AML cell lines, CellTiter-Glo (Example 20); assay type: cell-based; conditions: molm13, 5 days
hl60 = experiment: as above; assay type: cell-based; conditions: hl60, 5 days
nb4 = experiment: as above; assay type: cell-based; conditions: nb4, 5 days
cmk = experiment: as above; assay type: cell-based; conditions: 5 days
ociaml5 = experiment: as above; assay type: cell-based; conditions: ociaml5, 5 days
kasumi6 = experiment: as above; assay type: cell-based; conditions: kasumi6, 5 days
pl21 = experiment: as above; assay type: cell-based; conditions: pl21, 5 days
kg1 = experiment: as above; assay type: cell-based; conditions: kg1, 5 days
hel9217 = experiment: as above; assay type: cell-based; conditions: hel9217, 5 days

COc1ccccc1-c1nccc(COc2ccccc2C[C@@H](Oc2ncnc3sc(-c4ccc(F)cc4)c(-c4ccc(OCCN5CCN(C)CC5)c(Cl)c4C)c23)C(=O)O)n1 [P1, (2R)-2-[5-[3-chloro-2-methyl-4-[2-(4-methylpiperazin-1-yl)ethoxy]phenyl]-6-(4-fluorophenyl)thieno[2,3-d]pyrimidin-4-yl]oxy-3-[2-[[2-(2-methoxyphenyl)pyrimidin-4-yl]methoxy]phenyl]propanoic acid]
GI50 (aml193; 120 h): 6 nM
Amax (aml193; in % (unit assumed)): −87
Amax (hel; unit assumed): 4%
GI50 (hel; Homo sapiens, 120 h): 6090 nM
Amax (m07e; in % (unit assumed)): −74
GI50 (m07e; M-07e, 120 h): 94 nM
GI50 (mv411; Homo sapiens, MV4-11, 120 h): 1 nM
Amax (mv411; in % (unit assumed)): −72
GI50 (monomac1; Mono-Mac-1, 120 h): 1 nM
Amax (monomac1; in % (unit assumed)): −66
GI50 (21435hx; 120 h): 12 nM
Amax (21435hx; in % (unit assumed)): −91
Amax AMO1-CD33 (AMO1-CD33 clone D2): 103.00
IC50 (AMO1-CD33 clone D2; Homo sapiens, 120 h): 1.53 nM
Amax AMO1 (AMO1): 19.97
IC50 (AMO1; Homo sapiens, AMO1, 120 h): 0.038 nM
GI50 (molm13; Homo sapiens, MOLM-13, 120 h): 2 nM
Amax (molm13; in % (unit assumed)): −54
GI50 (hl60; Homo sapiens, HL-60, 120 h): 87 nM
Amax (hl60; in % (unit assumed)): −71
GI50 (nb4; Homo sapiens, NB-4, 120 h): 3 nM
Amax (nb4; in % (unit assumed)): −62
Amax (cmk; unit assumed): 100%
GI50 (cmk; Homo sapiens, 120 h): > 10000 nM
GI50 (ociaml5; Homo sapiens, OCI-AML-5, 120 h): 265 nM
Amax (ociaml5; unit assumed): 4%
GI50 (kasumi6; 120 h): 4 nM
Amax (kasumi6; in % (unit assumed)): −96
GI50 (pl21; PL-21, 120 h): 350 nM
Amax (pl21; in % (unit assumed)): −55
GI50 (kg1; Homo sapiens, KG-1, 120 h): 861 nM
Amax (kg1; in % (unit assumed)): −69
GI50 (hel9217; Homo sapiens, HEL 92.1.7, 120 h): 5280 nM
Amax (hel9217; in % (unit assumed)): −1
